{"source": "ChEMBL document CHEMBL1201862", "about": "“PubChem BioAssay data set” (2004)", "assay_in_all_cases": "inhibition of tumour cell growth, NCI panel, 48 h", "key": {"NCI-H23": {"system": "NCI-H23"}, "HCT-116": {"system": "HCT-116"}, "SK-MEL-28": {"system": "SK-MEL-28"}, "A549": {"system": "A549"}, "SF-539": {"system": "SF-539"}, "HOP-62": {"system": "HOP-62"}, "LOX IMVI": {"system": "LOX IMVI"}, "HCT-15": {"system": "HCT-15"}, "CAKI-1": {"system": "CAKI-1"}, "SNB-19": {"system": "SNB-19"}, "XF498": {"system": "XF498"}, "HL-60": {"system": "HL-60"}, "DMS-273": {"system": "DMS-273"}, "MOLT-4": {"system": "MOLT-4"}, "DLD-1": {"system": "DLD-1"}, "SK-MEL-5": {"system": "SK-MEL-5"}, "HOP-18": {"system": "HOP-18"}, "ACHN": {"system": "ACHN"}, "SR": {"system": "SR"}, "UACC-62": {"system": "UACC-62"}, "SF-295": {"system": "SF-295"}, "HT-29": {"system": "HT-29"}, "LXFL 529": {"system": "LXFL 529"}, "OVCAR-5": {"system": "OVCAR-5"}, "A498": {"system": "A498"}, "TK-10": {"system": "TK-10"}, "NCI-H522": {"system": "NCI-H522"}, "U-251": {"system": "U-251"}, "K562": {"system": "K562"}, "RXF 631": {"system": "RXF 631"}, "NCI-H460": {"system": "NCI-H460"}, "786-0": {"system": "786-0"}, "EKVX": {"system": "EKVX"}, "M19-MEL": {"system": "M19-MEL"}, "NCI-H226": {"system": "NCI-H226"}, "OVCAR-8": {"system": "OVCAR-8"}, "KM-20L2": {"system": "KM-20L2"}, "SNB-75": {"system": "SNB-75"}, "IGROV-1": {"system": "IGROV-1"}, "SN12C": {"system": "SN12C"}, "CCRF-CEM": {"system": "CCRF-CEM"}, "UO-31": {"system": "UO-31"}, "Malme-3M": {"system": "Malme-3M"}, "OVCAR-4": {"system": "OVCAR-4"}, "UACC-257": {"system": "UACC-257"}, "SK-OV-3": {"system": "SK-OV-3"}, "HCC 2998": {"system": "HCC 2998"}, "RXF 393": {"system": "RXF 393"}, "KM12": {"system": "KM12"}, "SW-620": {"system": "SW-620"}, "COLO 205": {"system": "COLO 205"}, "SF-268": {"system": "SF-268"}, "OVCAR-3": {"system": "OVCAR-3"}, "M14": {"system": "M14"}, "SK-MEL-2": {"system": "SK-MEL-2"}, "SNB-78": {"system": "SNB-78"}}, "note": "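Dose response: 5 concentrations. Exposure: 48 h. Format: 96-well plates. Endpoint: linear interpolation; highest concentration if not reached. Abbreviation: GI50, concentration required for 50% inhibition of growth.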 Calls of active or inactive are those of the source. Cut-off read from the data, not from the text of the source: active = GI50 up to about 1.1 µM and inactive = higher.", "data": [{"smiles": "O=C(/C=C/c1ccccc1O)c1cccs1", "values": [{"measurement": "GI50", "setting": "NCI-H23", "value": "> 100 µM (inactive)"}, {"measurement": "GI50", "setting": "HCT-116", "value": "> 100 µM (inactive)"}, {"measurement": "GI50", "setting": "SK-MEL-28", "value": "> 100 µM (inactive)"}, {"measurement": "GI50", "setting": "A549", "value": "> 100 µM (inactive)"}, {"measurement": "GI50", "setting": "SF-539", "value": "> 100 µM (inactive)"}, {"measurement": "GI50", "setting": "HOP-62", "value": "> 100 µM (inactive)"}, {"measurement": "GI50", "setting": "LOX IMVI", "value": "> 100 µM (inactive)"}, {"measurement": "GI50", "setting": "HCT-15", "value": "> 100", "unit": "µM"}, {"measurement": "GI50", "setting": "CAKI-1", "value": "> 100 µM (inactive)"}, {"measurement": "GI50", "setting": "SNB-19", "value": "> 100 µM (inactive)"}, {"measurement": "GI50", "setting": "XF498", "value": "> 100 µM (inactive)"}, {"measurement": "GI50", "setting": "HL-60", "value": "> 100 µM (inactive)"}, {"measurement": "GI50", "setting": "DMS-273", "value": "> 100 µM (inactive)"}, {"measurement": "GI50", "setting": "MOLT-4", "value": "> 100 µM (inactive)"}, {"measurement": "GI50", "setting": "DLD-1", "value": "> 100 µM (inactive)"}, {"measurement": "GI50", "setting": "SK-MEL-5", "value": "> 100 µM (inactive)"}, {"measurement": "GI50", "setting": "HOP-18", "value": "57.7 µM (inactive)"}, {"measurement": "GI50", "setting": "ACHN", "value": "> 100 µM (inactive)"}, {"measurement": "GI50", "setting": "SR", "value": "> 100 µM (inactive)"}, {"measurement": "GI50", "setting": "UACC-62", "value": "> 100 µM (inactive)"}, {"measurement": "GI50", "setting": "SF-295", "value": "> 100 µM (inactive)"}, {"measurement": "GI50", "setting": "HT-29", "value": "> 100 µM (inactive)"}, {"measurement": "GI50", "setting": "LXFL 529", "value": "> 100 µM (inactive)"}, {"measurement": "GI50", "setting": "OVCAR-5", "value": "> 100 µM (inactive)"}, {"measurement": "GI50", "setting": "A498", "value": "11.9 µM (inactive)"}, {"measurement": "GI50", "setting": "TK-10", "value": "> 100 µM (inactive)"}, {"measurement": "GI50", "setting": "NCI-H522", "value": "> 100 µM (inactive)"}, {"measurement": "GI50", "setting": "U-251", "value": "> 100 µM (inactive)"}, {"measurement": "GI50", "setting": "K562", "value": "> 100 µM (inactive)"}, {"measurement": "GI50", "setting": "RXF 631", "value": "> 100 µM (inactive)"}, {"measurement": "GI50", "setting": "NCI-H460", "value": "> 100 µM (inactive)"}, {"measurement": "GI50", "setting": "786-0", "value": "> 100 µM (inactive)"}, {"measurement": "GI50", "setting": "EKVX", "value": "> 100 µM (inactive)"}, {"measurement": "GI50", "setting": "M19-MEL", "value": "> 100 µM (inactive)"}, {"measurement": "GI50", "setting": "NCI-H226", "value": "> 100 µM (inactive)"}, {"measurement": "GI50", "setting": "OVCAR-8", "value": "> 100 µM (inactive)"}, {"measurement": "GI50", "setting": "KM-20L2", "value": "> 100 µM (inactive)"}, {"measurement": "GI50", "setting": "SNB-75", "value": "> 100 µM (inactive)"}, {"measurement": "GI50", "setting": "IGROV-1", "value": "> 100 µM (inactive)"}, {"measurement": "GI50", "setting": "SN12C", "value": "> 100 µM (inactive)"}, {"measurement": "GI50", "setting": "CCRF-CEM", "value": "> 100 µM (inactive)"}, {"measurement": "GI50", "setting": "UO-31", "value": "> 100 µM (inactive)"}, {"measurement": "GI50", "setting": "Malme-3M", "value": "> 100 µM (inactive)"}, {"measurement": "GI50", "setting": "OVCAR-4", "value": "> 100 µM (inactive)"}, {"measurement": "GI50", "setting": "UACC-257", "value": "> 100 µM (inactive)"}, {"measurement": "GI50", "setting": "SK-OV-3", "value": "> 100 µM (inactive)"}, {"measurement": "GI50", "setting": "HCC 2998", "value": "> 100 µM (inactive)"}, {"measurement": "GI50", "setting": "RXF 393", "value": "> 100 µM (inactive)"}, {"measurement": "GI50", "setting": "KM12", "value": "> 100 µM (inactive)"}, {"measurement": "GI50", "setting": "SW-620", "value": "> 100 µM (inactive)"}, {"measurement": "GI50", "setting": "COLO 205", "value": "> 100 µM (inactive)"}, {"measurement": "GI50", "setting": "SF-268", "value": "> 100 µM (inactive)"}, {"measurement": "GI50", "setting": "OVCAR-3", "value": "> 100 µM (inactive)"}, {"measurement": "GI50", "setting": "M14", "value": "> 100 µM (inactive)"}, {"measurement": "GI50", "setting": "SK-MEL-2", "value": "> 100 µM (inactive)"}, {"measurement": "GI50", "setting": "SNB-78", "value": "> 100 µM (inactive)"}]}]}
